Data reported in US20230278972A1, “SUBSTITUTED HALOALKYL SULFONANILIDE HERBICIDES” (FMC Corporation, priority 2020, published 2023).

Tests used:
Type in all cases: in vivo
[1] = test system: galium (catchweed bedstraw, Galium aparine); experiment: Test A1 postemergence, galium; conditions: for Plant response rating, Galium: Postemergence
Method in brief: (§1)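 Seeds were first planted into a blend of loam soil and sand and given a preemergence directed soil spray. In parallel, pots of the same soil were sown for postemergence application once plants reached 2 to 10 cm and the one- to two-leaf stage. Both used surfactant-containing non-phytotoxic solvent formulations.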

[2] = test system: ragweed (common ragweed, Ambrosia artemisiifolia); experiment: Test A1 postemergence, ragweed; conditions: for Plant response rating, Ragweed: Postemergence
Method in brief: (§2)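 Both timings started from seed in a loam-sand blend. Preemergence pots got a directed soil application immediately; postemergence pots were sprayed when seedlings had one or two leaves and stood 2–10 cm. Each compound was prepared in a non-phytotoxic solvent plus surfactant.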

[3] = test system: Pigweed, Palmer (palmer amaranth, palmer pigweed, Amaranthus palmeri); experiment: Test A1 postemergence, Pigweed, Palmer; conditions: for Plant response rating, Pigweed, Palmer: Postemergence
Method in brief: as §2

[4] = test system: goosegrass (Eleusine indica); experiment: Test A1 postemergence, goosegrass; conditions: for Plant response rating, Goosegrass: Postemergence
Method in brief: as §1

[5] = test system: ragweed (common ragweed, Ambrosia artemisiifolia); experiment: Test A1 preemergence, ragweed
Method in brief: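 Herbicidal response was scored on plants treated either preemergence, by directed spray onto soil of a loam–sand blend after sowing, or postemergence on potted plants at the one- to two-leaf stage, 2–10 cm high. Test chemicals were carried in a non-phytotoxic solvent mix with surfactant.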

[6] = 31 g ai/ha, 0 to 100 scale (0 no effect, 100 complete control), 10 days
[7] = 31 g ai/ha, 0 to 100 scale (0 no effect, 100 complete control)
[8] = 125 g ai/ha, 0 to 100 scale, 0 no effect, 100 complete control
[9] = 31 g ai/ha, postemergence, 0 to 100 scale (0 no effect, 100 complete control)

SMILES | Plant response rating, Galium [1, 6] | Plant response rating, Galium ([1]; 125 g ai/ha, 0 to 100 scale) | Plant response rating, Ragweed [2, 6] | Plant response rating, Ragweed ([2]; 125 g ai/ha, 0 to 100 scale) | Plant response rating, Pigweed, Palmer [3, 6] | Plant response rating, Pigweed, Palmer ([3]; 125 g ai/ha, 0 to 100 scale) | Plant response rating, Goosegrass [4, 6] | Plant response rating, Goosegrass ([4]; 125 g ai/ha, 0 to 100 scale) | Plant response rating, Ragweed [5, 7] | Plant response rating, Ragweed [5, 8] | Galium plant response rating [1, 9] | Ragweed plant response rating [2, 9] | Pigweed, Palmer plant response rating [3, 9] | Goosegrass plant response rating [4, 9]
Cc1cc(C)c(N(COC(=O)OC(C)(C)C)S(=O)(=O)C(F)(F)F)cc1C1=NOC2CCCC12 (centres unmarked) [Compound 316] | 40 | 50 | 0 | 50 | 30 | 70 | 0 | 90 | 0 | 20 |  |  |  | 
Cc1cc(C)c(C2=NOC3(C)CCCC23)cc1NS(=O)(=O)C(F)(F)F (centres unmarked) [Compound 340] | 50 | 80 | 70 | 80 | 0 | 30 | 60 | 90 | 10 | 90 |  |  |  | 
Cc1c(C2=NO[C@@H]3CCC[C@H]23)cc(N(COC(=O)C(C)(C)C)S(=O)(=O)C(F)(F)F)c(C)c1C [Compound 336, [[(Trifluoromethyl)sulfonyl][2,3,4-trimethyl-5-[(3aR,6aR)-3a,5,6,6a-tetrahydro-4H-cyclopent[d]isoxazol-3-yl]phenyl]amino]methyl 2,2-dimethylpropanoate] | 60 | 100 | 50 | 80 | 20 | 50 | 0 | 0 | 0 | 50 |  |  |  | 
CCOC(=O)N(c1cc(C(=O)N2CCC(C)CC2)c(C)cc1C)S(=O)(=O)C(F)(F)F [Compound 354] | 40 | 80 | 40 | 50 | 0 | 10 | 0 | 100 | 20 | 50 |  |  |  | 
Cc1c(NS(=O)(=O)C(F)(F)F)cc(C2=NOC3CCCC23)c(C)c1C (centres unmarked) [Compound 335] | 50 | 80 | 50 | 80 | 20 | 30 | 0 | 10 | 20 | 90 |  |  |  | 
C#CCN(C)C(=O)c1cc(N(COC(=O)C(C)(C)C)S(=O)(=O)C(F)(F)F)c(C)c(C)c1C [Compound 371] |  | 100 |  | 70 |  | 30 |  | 80 | 40 | 90 | 70 | 40 | 0 | 0
Cc1cc(C)c(C2=NOC3COCC23)cc1NS(=O)(=O)C(F)(F)F (centres unmarked) [Compound 297] | 80 | 90 | 30 | 70 | 10 | 20 | 0 | 70 | 20 | 60 |  |  |  | 
Cc1cc(Br)c(C2=NOC3CCCC23)cc1NS(=O)(=O)C(F)(F)F (centres unmarked) [Compound 302] | 0 | 0 | 30 | 70 | 10 | 40 | 0 | 10 | 0 | 30 |  |  |  | 
C#CCN(C)C(=O)c1cc(NS(=O)(=O)C(F)(F)F)c(Cl)c(F)c1C [Compound 337] | 70 | 100 | 50 | 90 | 30 | 50 | 0 | 90 | 70 | 90 |  |  |  | 
Cc1cc(C)c(N(COC(=O)C(C)(C)C)S(=O)(=O)C(F)(F)F)cc1C(=O)N1CCOCC1 [Compound 362] | 60 | 80 | 70 | 80 | 10 | 30 | 40 | 90 | 0 | 50 |  |  |  | 
Cc1c(NS(=O)(=O)C(F)(F)F)cc(C(=O)N2CC(C)OC(C)C2)c(C)c1C (centres unmarked) [Compound 327] | 100 | 100 | 70 | 90 | 30 | 50 | 20 | 70 | 90 | 90 |  |  |  | 
